Reference: ChEMBL document CHEMBL5532672, “Discovery of 2-Ethoxy-5-isobutyramido-N-1-substituted Benzamide Derivatives as Selective Kv2.1 Inhibitors with In Vivo Neuroprotective Effects” (J Med Chem, 2024)
Calls of active or inactive are those of the source. The calls are words filed in the database; no cut-off is given here.

What was measured:
[1] = molecular target: T1, Potassium voltage-gated channel subfamily B member 1 (Homo sapiens, UniProt Q14721); assay: Inhibition of human KV2.1 stably expressed in HEK293 cells by whole cell patch-clamp assay; type: cell-based
T1 sequence (Q14721 whole entry): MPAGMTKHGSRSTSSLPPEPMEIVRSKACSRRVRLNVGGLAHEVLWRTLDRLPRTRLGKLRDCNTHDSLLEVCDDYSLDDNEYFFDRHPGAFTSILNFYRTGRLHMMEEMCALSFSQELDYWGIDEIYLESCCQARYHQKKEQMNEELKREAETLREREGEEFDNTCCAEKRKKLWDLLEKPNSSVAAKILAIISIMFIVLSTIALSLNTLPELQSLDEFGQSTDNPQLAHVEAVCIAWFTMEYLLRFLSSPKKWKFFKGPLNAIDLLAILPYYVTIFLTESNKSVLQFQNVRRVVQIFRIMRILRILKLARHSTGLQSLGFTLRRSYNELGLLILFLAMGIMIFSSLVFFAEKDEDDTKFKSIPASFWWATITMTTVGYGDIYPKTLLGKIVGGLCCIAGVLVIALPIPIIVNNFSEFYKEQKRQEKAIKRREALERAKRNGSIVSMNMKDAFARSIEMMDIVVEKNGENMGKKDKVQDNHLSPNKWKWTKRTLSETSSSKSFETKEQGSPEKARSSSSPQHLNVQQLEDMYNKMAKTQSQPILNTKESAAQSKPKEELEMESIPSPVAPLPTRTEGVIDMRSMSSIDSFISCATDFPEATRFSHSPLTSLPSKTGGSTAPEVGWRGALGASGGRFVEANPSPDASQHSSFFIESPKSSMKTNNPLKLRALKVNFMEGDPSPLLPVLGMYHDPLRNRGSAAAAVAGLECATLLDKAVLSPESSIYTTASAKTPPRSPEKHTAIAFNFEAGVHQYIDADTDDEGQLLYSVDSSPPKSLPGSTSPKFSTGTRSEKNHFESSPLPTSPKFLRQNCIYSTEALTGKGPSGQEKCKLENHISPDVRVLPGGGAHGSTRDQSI

[2] = molecular target: Voltage-gated inwardly rectifying potassium channel KCNH2 (Homo sapiens, UniProt Q12809); assay: Inhibition of human ERG by whole cell patch-clamp assay; type: toxicity
Sequence of Voltage-gated inwardly rectifying potassium channel KCNH2 (Q12809 whole entry): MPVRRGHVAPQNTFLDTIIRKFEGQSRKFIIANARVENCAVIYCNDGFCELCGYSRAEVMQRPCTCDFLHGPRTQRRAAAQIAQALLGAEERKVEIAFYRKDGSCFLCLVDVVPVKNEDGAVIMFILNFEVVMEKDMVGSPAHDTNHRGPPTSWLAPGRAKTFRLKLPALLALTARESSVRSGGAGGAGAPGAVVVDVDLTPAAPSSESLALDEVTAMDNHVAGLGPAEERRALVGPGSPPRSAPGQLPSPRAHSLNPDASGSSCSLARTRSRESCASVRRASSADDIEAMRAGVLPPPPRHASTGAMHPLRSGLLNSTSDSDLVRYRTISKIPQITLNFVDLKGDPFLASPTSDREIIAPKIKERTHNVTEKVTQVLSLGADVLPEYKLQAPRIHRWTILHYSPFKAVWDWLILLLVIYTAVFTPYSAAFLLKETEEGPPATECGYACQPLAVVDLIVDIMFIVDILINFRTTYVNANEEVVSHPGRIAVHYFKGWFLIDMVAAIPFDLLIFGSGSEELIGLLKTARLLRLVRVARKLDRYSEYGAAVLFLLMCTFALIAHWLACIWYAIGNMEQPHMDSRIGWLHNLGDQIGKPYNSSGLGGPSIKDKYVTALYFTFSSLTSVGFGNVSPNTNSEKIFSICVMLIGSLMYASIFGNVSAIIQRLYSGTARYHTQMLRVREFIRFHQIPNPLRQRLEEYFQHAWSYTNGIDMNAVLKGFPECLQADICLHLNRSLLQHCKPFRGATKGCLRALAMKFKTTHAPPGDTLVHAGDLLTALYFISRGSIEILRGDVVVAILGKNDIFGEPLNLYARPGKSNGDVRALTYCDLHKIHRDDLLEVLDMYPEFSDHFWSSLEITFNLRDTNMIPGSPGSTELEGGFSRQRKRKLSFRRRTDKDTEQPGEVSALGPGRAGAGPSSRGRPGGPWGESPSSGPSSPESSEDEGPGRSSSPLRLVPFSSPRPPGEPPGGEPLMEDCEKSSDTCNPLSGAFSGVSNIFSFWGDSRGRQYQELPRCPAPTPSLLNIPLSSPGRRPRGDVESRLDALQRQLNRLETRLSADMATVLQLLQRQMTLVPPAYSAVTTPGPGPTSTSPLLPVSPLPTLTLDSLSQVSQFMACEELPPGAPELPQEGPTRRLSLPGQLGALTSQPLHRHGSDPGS

[3] = molecular target: T2, Voltage-gated potassium channel KCNC1 (Homo sapiens, UniProt P48547); assay: Inhibition of KV3.1 (unknown origin) by whole cell patch-clamp assay
T2 sequence (P48547 whole entry): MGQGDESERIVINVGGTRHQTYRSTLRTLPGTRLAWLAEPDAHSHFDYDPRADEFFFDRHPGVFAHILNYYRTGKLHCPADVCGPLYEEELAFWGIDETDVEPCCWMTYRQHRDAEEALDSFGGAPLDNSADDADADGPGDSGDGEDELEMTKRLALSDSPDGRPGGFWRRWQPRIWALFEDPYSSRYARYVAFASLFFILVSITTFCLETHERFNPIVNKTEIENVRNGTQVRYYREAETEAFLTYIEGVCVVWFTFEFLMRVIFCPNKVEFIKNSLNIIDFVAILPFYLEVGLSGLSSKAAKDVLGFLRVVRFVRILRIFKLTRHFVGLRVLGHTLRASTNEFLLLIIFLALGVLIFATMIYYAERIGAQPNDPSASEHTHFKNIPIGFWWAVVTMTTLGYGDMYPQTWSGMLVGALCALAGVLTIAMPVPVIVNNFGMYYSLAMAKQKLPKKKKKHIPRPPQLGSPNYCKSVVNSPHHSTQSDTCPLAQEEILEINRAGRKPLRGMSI

[4] = molecular target: Potassium voltage-gated channel subfamily A member 5 (Homo sapiens, UniProt P22460); assay: Inhibition of KV1.5 (unknown origin) by whole cell patch-clamp assay
Sequence of Potassium voltage-gated channel subfamily A member 5 (P22460 whole entry): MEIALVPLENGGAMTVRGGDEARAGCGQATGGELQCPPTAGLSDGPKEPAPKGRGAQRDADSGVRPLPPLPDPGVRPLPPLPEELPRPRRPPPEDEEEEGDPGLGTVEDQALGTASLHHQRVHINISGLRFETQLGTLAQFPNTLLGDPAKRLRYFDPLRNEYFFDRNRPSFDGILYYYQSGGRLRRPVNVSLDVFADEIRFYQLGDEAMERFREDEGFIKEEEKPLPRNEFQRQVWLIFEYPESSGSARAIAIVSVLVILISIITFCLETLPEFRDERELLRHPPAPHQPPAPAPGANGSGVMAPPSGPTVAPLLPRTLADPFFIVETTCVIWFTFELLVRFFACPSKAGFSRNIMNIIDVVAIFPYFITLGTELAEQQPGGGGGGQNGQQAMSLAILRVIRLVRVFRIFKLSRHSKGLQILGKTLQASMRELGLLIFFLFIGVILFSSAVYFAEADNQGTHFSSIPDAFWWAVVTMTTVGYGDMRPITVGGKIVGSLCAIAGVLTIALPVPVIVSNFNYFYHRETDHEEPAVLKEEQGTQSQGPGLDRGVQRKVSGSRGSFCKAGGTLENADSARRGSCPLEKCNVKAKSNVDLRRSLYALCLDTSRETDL

[5] = molecular target: T3, Potassium voltage-gated channel subfamily B member 1 (Homo sapiens) (UniProt Q14721); assay: Inhibition of human KV2.1 stably expressed in HEK293 cells at 1 uM by whole cell patch-clamp assay; type: cell-based
T3 sequence (whole entry): T1 sequence (Q14721 whole entry)

Row | Structure (SMILES) | IC50 [1] | further results
1 | CCOc1ccc(NC(=O)C(C)C)cc1C(=O)NC(C)c1ccnc(OC)c1 (stereo not drawn) | 0.43 µM | –
2 | CCOc1ccc(NC(=O)C(C)C)cc1C(=O)NCc1cccc(-c2nccs2)c1 | 0.53 µM | –
3 | CC(C)C(=O)Nc1ccc(N(C)C)c(C(=O)NCc2cccc3ccccc23)c1 | > 1 µM | –
4 | CC(C)COc1ccc(NC(=O)C(C)C)cc1C(=O)NC(C)c1cccc(-c2nccs2)c1 (stereo not drawn) | > 1 µM | –
5 | CC(C)Oc1ccc(NC(=O)C(C)C)cc1C(=O)NC(C)c1cccc(-c2nccs2)c1 (stereo not drawn) | > 1 µM | –
6 | CCOc1ccc(NC(=O)C(C)C)cc1C(=O)NCc1cccc(OC(F)F)c1 | 0.3 µM | IC50 [2]: 30 µM; IC50 [3]: > 30 µM; IC50 [4]: 14.2 µM
7 | CCOc1ccc(NC(=O)C2CC2)cc1C(=O)NC(C)c1cccc(-c2nccs2)c1 (stereo not drawn) | 1.1 µM | –
8 | COc1ccc(NC(=O)C(C)C)cc1C(=O)NC(C)c1cccc(-c2nccs2)c1 (stereo not drawn) | 3 µM | –
9 | CC(C)C(=O)Nc1ccc(N(C)C)c(C(=O)NCc2cccnc2)c1 | > 1 µM | –
10 | CC(C)C(=O)Nc1ccc(N(C)C)c(C(=O)NC(C)c2ccccc2)c1 (racemic) | 0.48 µM | –
11 | CCOc1ccc(NS(=O)(=O)CC)cc1C(=O)NC(C)c1cccc(-c2nccs2)c1 (stereo not drawn) | 10 µM | –
12 | CCOc1ccc(NC(=O)C(C)C)cc1C(=O)NC(C)c1ccnc(NC)n1 (stereo not drawn) | > 1 µM | –
13 | CCOc1ccc(NC(=O)C(C)C)cc1C(=O)NC(C)c1cccc(F)n1 (stereo not drawn) | 0.32 µM | –
14 | CCOc1ccc(NC(=O)C(C)C)cc1C(=O)NC(C)c1cccc(N2CCC2)c1 (stereo not drawn) | 0.32 µM | –
15 | CC(C)C(=O)Nc1ccc(OCC(F)(F)F)c(C(=O)NC(C)c2cccc(-c3nccs3)c2)c1 (stereo not drawn) | > 1 µM | –
16 | CCOc1ccc(NC(=O)C(F)(F)F)cc1C(=O)NC(C)c1cccc(-c2nccs2)c1 (stereo not drawn) | > 10 µM | –
17 | CCOc1ccc(NC(=O)C(C)C)cc1C(=O)NCc1cccc(N2CCCC2)c1 | ~1 µM | –
18 | CCOc1ccc(NC(=O)C2CCCC2)cc1C(=O)NC(C)c1cccc(-c2nccs2)c1 (stereo not drawn) | > 10 µM | –
19 | CCOc1ccc(NC(=O)C(C)C)cc1C(=O)NC(C)c1cccc(Br)n1 (stereo not drawn) | ~1 µM | –
20 | CCOc1ccc(N(C)C(=O)C(C)C)cc1C(=O)NCc1cccc(-c2nccs2)c1 | – | inhibition [5]: inactive
21 | CCOc1ccc(NC(=O)C(C)C)cc1C(=O)NC(C)c1cncc(C)n1 (stereo not drawn) | > 1 µM | –
22 | CC(C)C(=O)Nc1ccc(N(C)C)c(C(=O)NCc2cccc(-c3ccccc3)c2)c1 | 3.55 µM | –
23 | CCOc1ccc(NC(=O)C(C)C)cc1C(=O)NC(C)c1cccc(OC)c1 (stereo not drawn) | 0.37 µM | –
24 | CCOc1ccc(NC(C)=O)cc1C(=O)NC(C)c1cccc(-c2nccs2)c1 (stereo not drawn) | ~10 µM | –
25 | CCOc1ccc(NC(=O)C(C)C)cc1C(=O)NC(C)c1ccccc1 (stereo not drawn) | ~1 µM | –
26 | CC(C)C(=O)Nc1ccc(N(C)C)c(C(=O)NCc2cccc(-c3nccs3)c2)c1 | 0.39 µM | IC50 [2]: 30 µM; IC50 [3]: > 30 µM; IC50 [4]: 11 µM
27 | CCOc1ccc(NC(=O)C(C)C)cc1C(=O)NC(C)c1ccnc(Cl)n1 (stereo not drawn) | ~1 µM | –

Row | Structure (SMILES) | IC50 [1] | further results
28 | CC(C)C(=O)Nc1cccc(C(=O)NC(C)c2cccc(-c3nccs3)c2)c1 (stereo not drawn) | > 1 µM | –
29 | CCOc1ccc(NC(=O)C(C)C)cc1C(=O)NC(C)c1cccc(N2CCCC2)c1 (stereo not drawn) | ~1 µM | –
30 | CCOc1ccc(NC(=O)C(C)C)cc1C(=O)NCc1cccc(OC(F)(F)F)c1 | 0.337 µM | –
31 | CCOc1ccc(NC(=O)CC)cc1C(=O)NC(C)c1cccc(-c2nccs2)c1 (stereo not drawn) | ~10 µM | –
32 | CCOc1ccc(NC(=O)C(C)C)cc1C(=O)N(C)Cc1cccc(-c2nccs2)c1 | – | inhibition [5]: inactive
33 | CCOc1ccc(NC(=O)C(C)C)cc1C(=O)NC(C)c1cccc(Cl)n1 (stereo not drawn) | ~1 µM | –
34 | CC(C)C(=O)Nc1ccc(N(C)C)c(C(=O)NCc2cccc(-c3ccco3)c2)c1 | > 1 µM | –
35 | CC(C)C(=O)Nc1ccc(N(C)C)c(C(=O)NCc2ccccn2)c1 | 0.54 µM | IC50 [2]: 30 µM; IC50 [3]: > 30 µM; IC50 [4]: > 30 µM
36 | CCOc1ccc(NC(=O)C(C)C)cc1C(=O)NC(C)c1cccc(OC(F)F)c1 (stereo not drawn) | 0.25 µM | IC50 [2]: 10 µM; IC50 [4]: 10 µM
37 | CC(C)C(=O)Nc1ccc(N(C)C)c(C(=O)NCc2ccncc2)c1 | – | inhibition [5]: inactive
38 | CCOc1ccc(NC(=O)C(C)C)cc1C(=O)NC(C)c1cccc(-c2nccs2)c1 (stereo not drawn) | 0.43 µM | IC50 [2]: > 30 µM; IC50 [3]: > 30 µM; IC50 [4]: 10 µM
39 | CCOc1ccc(NC(=O)C(C)C)cc1C(=O)NC(C)c1cccc(Br)c1 (stereo not drawn) | ~1 µM | –
40 | CCOc1ccc(NC(=O)OC(C)C)cc1C(=O)NC(C)c1cccc(-c2nccs2)c1 (stereo not drawn) | 1 µM | –
41 | CCOc1ccc(NC(=O)C2CCC2)cc1C(=O)NC(C)c1cccc(-c2nccs2)c1 (stereo not drawn) | 0.55 µM | –
42 | CCOc1ccc(N2CCCC2=O)cc1C(=O)NCc1cccc(-c2nccs2)c1 | – | inhibition [5]: inactive
43 | CCOc1ccc(NC(=O)C(C)C)cc1C(=O)NCc1cccc(Br)c1 | ~1 µM | –
44 | CC(C)C(=O)Nc1ccc(OCC(F)(F)F)c(C(=O)NCc2cccc(-c3nccs3)c2)c1 | > 1 µM | –
45 | CCOC(=O)Nc1ccc(OCC)c(C(=O)NC(C)c2cccc(-c3nccs3)c2)c1 (stereo not drawn) | 1.1 µM | –
46 | CCOc1ccc(NC(=O)C(C)C)cc1C(=O)NCc1cccc(-c2ccccn2)c1 | > 1 µM | –
47 | CCCOc1ccc(NC(=O)C(C)C)cc1C(=O)NC(C)c1cccc(-c2nccs2)c1 (stereo not drawn) | 0.59 µM | –
48 | CCOc1ccc(NC(=O)C(C)C)cc1C(=O)NC(C)c1ccnc(OC)n1 (stereo not drawn) | ~1 µM | –
49 | CCOc1ccc(NC(=O)C(C)C)cc1C(=O)NC(C)c1cccc(-c2ncccn2)c1 (stereo not drawn) | 0.66 µM | –
50 | CCOc1ccc(NC(=O)C(C)C)cc1C(=O)NC(C)c1ccnc(C)n1 (stereo not drawn) | ~1 µM | –
51 | CCOc1ccc(C(=O)NC(C)C)cc1C(=O)NCc1cccc(-c2nccs2)c1 | – | inhibition [5]: inactive
52 | CCOc1ccc(NC(=O)C(C)C)cc1C(=O)NC(C)c1cccc(C)c1 (stereo not drawn) | 0.08 µM | IC50 [2]: 30 µM; IC50 [3]: > 30 µM; IC50 [4]: 5.7 µM
53 | CCOc1ccc(NC(=O)c2ccccc2)cc1C(=O)NCc1cccc(-c2nccs2)c1 | – | inhibition [5]: inactive
54 | CCOc1ccc(NC(=O)C(C)C)cc1C(=O)NC(C)c1cccc(OC)n1 (stereo not drawn) | 0.05 µM | IC50 [2]: > 30 µM; IC50 [4]: 10 µM
